According to US20260137698A1, “CYCLIN-DEPENDENT KINASE 7 INHIBITORS” (JOINT STOCK COMPANY «BIOCAD», priority 2022, published 2026):
Where two headings read alike, the source gives them in different places.

Assays:
[1] = Passive membrane permeability through PAMPA artificial membrane, pH 7.4; format: in vitro ADME; settings: pH 7.4, 10 μmol, 20 hours at room temperature, mean of multiple measurements, read-out: PAMPA passive permeability Pe
Outline: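 Compound at 10 μmol in 0.01 M phosphate buffer pH 7.4 placed in donor wells over lecithin-phospholipid-impregnated PVDF filter, buffer in acceptor; 20 h at room temperature. Donor and acceptor levels measured by RP-HPLC-UV; Pe (cm/s) and membrane retention R (%) calculated.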

CDK2/Cyclin A = CDK2/Cyclin A (Homo sapiens, UniProt P24941); experiment: Inhibition of CDK2/Cyclin A kinase activity (ADP-Glo); format: biochemical
Outline: (§1)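 ADP-Glo luminescence quantified ATP consumption after a 40-60 minute, 25° C. reaction with ATP plus CDKtide, Histone H1 or PDKtide, following a 10-minute compound–kinase preincubation in DTT-supplemented kinase buffer A. Compounds spanned 11 concentrations from 50 μM in 4-fold dilutions; IC50 fitted to a four-parameter model.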

CDK7/Cyclin H/MNAT1 = CDK7/Cyclin H/MNAT1 (Homo sapiens, UniProt P50613); experiment: Inhibition of CDK7/Cyclin H/MNAT1 kinase activity (ADP-Glo); format: biochemical
Chain of CDK7/Cyclin H/MNAT1 (P50613 whole entry): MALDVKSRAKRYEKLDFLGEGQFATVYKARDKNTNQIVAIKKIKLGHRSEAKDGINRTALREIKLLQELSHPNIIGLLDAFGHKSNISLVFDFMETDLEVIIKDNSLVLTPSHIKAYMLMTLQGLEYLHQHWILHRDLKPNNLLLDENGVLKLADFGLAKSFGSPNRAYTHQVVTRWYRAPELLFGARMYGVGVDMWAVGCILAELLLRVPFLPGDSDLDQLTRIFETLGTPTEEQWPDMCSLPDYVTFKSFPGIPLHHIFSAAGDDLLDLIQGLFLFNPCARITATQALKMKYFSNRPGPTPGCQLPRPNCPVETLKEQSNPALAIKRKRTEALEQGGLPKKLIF
Chain of CDK7/Cyclin H/MNAT1 (P51946 whole entry partner): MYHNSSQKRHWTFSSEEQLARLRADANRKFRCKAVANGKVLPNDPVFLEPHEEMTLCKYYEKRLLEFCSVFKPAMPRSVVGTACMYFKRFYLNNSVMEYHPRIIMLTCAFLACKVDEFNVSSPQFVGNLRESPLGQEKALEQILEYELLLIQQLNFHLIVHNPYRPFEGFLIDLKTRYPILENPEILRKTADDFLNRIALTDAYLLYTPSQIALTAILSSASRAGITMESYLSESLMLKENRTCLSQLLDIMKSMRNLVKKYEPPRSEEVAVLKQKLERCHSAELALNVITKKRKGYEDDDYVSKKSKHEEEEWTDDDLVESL
Chain of CDK7/Cyclin H/MNAT1 (P51948 whole entry partner): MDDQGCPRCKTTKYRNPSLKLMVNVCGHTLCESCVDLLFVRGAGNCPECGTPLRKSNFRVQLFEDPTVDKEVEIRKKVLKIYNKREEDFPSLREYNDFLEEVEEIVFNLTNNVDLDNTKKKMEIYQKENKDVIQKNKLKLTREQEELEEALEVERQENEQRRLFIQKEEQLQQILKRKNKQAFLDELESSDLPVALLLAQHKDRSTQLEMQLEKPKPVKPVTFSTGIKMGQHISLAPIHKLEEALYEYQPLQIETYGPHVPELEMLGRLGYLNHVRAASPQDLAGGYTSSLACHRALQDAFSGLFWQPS
Outline: as §1

[2] = General cytotoxicity on primary differentiated HepaRG cells (72 h); format: cell-based; settings: human, general toxicity, mean value from several measurements
Outline: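 Test compounds spanning 200 μM to 0.2 nM were incubated for 72 hours with primary differentiated HepaRG cells. Cells had been kept one week in supplemented hepatic medium and seeded the night before at 25×10^3 per well, and viability was then measured.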

[3] = Microsomal stability in rat liver microsomes (RLM); format: in vitro ADME; settings: rat liver microsomes 0.5 mg/ml, 1 μM compound, NADPH
Protocol: The procedure for investigating the metabolism of selected compounds was carried out in microsomal fractions of the liver (of rats, mice, humans) in the presence of a phase I metabolism cofactor (NADPH).
The rate of enzymatic decomposition of the compound in liver microsomes in in vitro analysis was determined by keeping a reaction mixture comprising 0.5 mg/ml of pooled human, rat or mouse liver microsomes, 1 μM test compound, 1.5 mM […] (Carbosynth, UK, cat. no. NN108711101) and 1.5 mM magnesium chloride in 0.1 M sodium phosphate buffer (pH 7.4) in a solid-state thermostat at 37° C. (XenoTech, USA, order no. H2610, cat. no. R1000, cat. no. M1000). Incubation was carried out in three replicates.
To determine the stability of compounds under sample preparation conditions, an aliquot in two replicates with the test compound and a microsomal fraction devoid of the NADPH cofactor, which was incubated for 40 minutes at 37° C.
Reactions were stopped at 0, 10, 20, 30 and 40 min time points by way of adding an ice mixture of acetonitrile:methanol (3:1) comprising an internal standard.
Samples were then centrifuged to remove the precipitated protein, supernatants were analyzed using HPLC-MS/MS to determine in vitro clearance (CLint) of the compounds. The Agilent 6410 mass spectrometer (Agilent, USA) combined with the Agilent 1260 Infinity II HPLC liquid chromatograph (Agilent, USA) and a cooling autosampler controlled by MassHunter software (Agilent, USA) was used as an HPLC-MS/MS system. Chromatographic analysis was performed on a C18 reversed-phase HPLC column (Agilent, Waters or equivalent) in a gradient elution mode in a system of mobile phases: 0.1% formic acid in water/0.1% formic acid in acetonitrile, flow rate: 0.5 ml/min, column T=35° C. Mass spectrometric detection was performed with electrospray ionization in multiple reaction monitoring mode. Precursor ions, fragment ions and collision energies for each substance were selected experimentally.
A graph of dependence of the logarithmic ratio between substance's peak area and internal standard's peak area vs time was built. The dependent coefficient of this line corresponded to the elimination rate constant k, on the basis of which the in vitro clearance CLint was calculated:
Based on resulting in vitro clearance CLint values, the microsomal stability of the selected compounds for humans, rats and mice was concluded.

[4] = mean of multiple measurement series, ATP 50 μM, read-out: CDK2/Cyclin A IC50
[5] = mean value from several measurements, read-out: IC50 CDK2/Cyclin A
[6] = mean of multiple measurement series, ATP 10 μM, read-out: CDK7/Cyclin H/MNAT1 IC50
[7] = mean value from several measurements, read-out: IC50 CDK7/Cyclin H/MNAT

SMILES | Papp at 20 h, 10 μmol [1] [×10⁻⁶ cm/s] | IC50 (CDK2/Cyclin A; [4]) [nM] | IC50 (CDK2/Cyclin A; [5]) [nM] | IC50 (CDK7/Cyclin H/MNAT1; [6]) [nM] | IC50 (CDK7/Cyclin H/MNAT1; [7]) [nM] | RLM Clint [3] | CC50 at 72 h [2] [nM]
Cn1cc(-n2ccc3c(-c4nc(N[C@H]5CCC(C)(C)NC5)ncc4C(F)(F)F)c[nH]c3c2=O)cn1 [CDK7_1123, 3-(2-{[(3S)-6,6-dimethylpiperidin-3-yl]amino}-5-(trifluoromethyl)py-rimidin-4-yl)-6-(1-methyl-1H-pyrazol-4-yl)-1H,6H,7H-pyrrolo[2,3-c]pyridin-7-one] | < 1 | 35200 | > 200 | < 5 | < 5 | – | > 2000
Cn1cc(N2CCCc3c(-c4nc(N[C@H]5CCC(C)(C)NC5)ncc4C(F)(F)F)c[nH]c3C2=O)cn1 [CDK7_1122, 3-(2-{[(3S)-6,6-dimethylpiperidin-3-yl]amino}-5-(trifluoromethyl)py-rimidin-4-yl)-7-(1-methyl-1H-pyrazol-4-yl)-1H,4H,5H,6H,7H, 8H-pyrrolo[2,3-c]azepin-8-one] | 1 to 5 | – | – | – | 5 to 50 | – | > 2000
O=C1c2[nH]cc(-c3nc(N[C@H]4CCC5(CC5)NC4)ncc3C(F)(F)F)c2CCCN1C1CC1 [CDK7_1276, 3-(2-{[(6S)-4-azaspiro[2.5]octan-6-yl]amino}-5-(trifluoromethyl)py-rimidin-4-yl)-7-cyclopropyl-1H,4H,5H,6H,7H, 8H-pyrrolo[2,3-c]azepin-8-one] | 5 to 10 | 6220 | > 200 | < 5 | < 5 | B (50 μl/(min · mg of protein) > Clint > 20 μl/(min · mg of protein)) | > 2000
CC(C)N1CCCc2c(-c3nc(N[C@H]4CCC5(CC5)NC4)ncc3C(F)(F)F)c[nH]c2C1=O [CDK7_1277, 3-(2-{[(6S)-4-azaspiro[2.5]octan-6-yl]amino}-5-(trifluoromethyl)py-rimidin-4-yl)-7-(propan-2-yl)-1H,4H,5H,6H,7H, 8H-pyrrolo[2,3-c]azepin-8-one] | 5 to 10 | 14300 | > 200 | < 5 | < 5 | B (50 μl/(min · mg of protein) > Clint > 20 μl/(min · mg of protein)) | > 2000
O=c1c2[nH]cc(-c3nc(N[C@H]4CCCNC4)ncc3C(F)(F)F)c2ccn1Cc1ccccc1 [CDK7_961, 6-benzyl-3-(2-{[(3S)-piperidin-3-yl]amino}-5-(trifluoromethyl)py-rimidin-4-yl)-1H,6H,7H-pyrrolo[2,3-c]pyridin-7-one] | 1 to 5 | 3700 | > 200 | < 5 | < 5 | – | 100 to 500
Cn1cc(-n2ccc3c(-c4nc(N[C@H]5CCCNC5)ncc4C(F)(F)F)c[nH]c3c2=O)cn1 [CDK7_959, 6-(1-methyl-1H-pyrazol-4-yl)-3-(2-{[(3S)-piperidin-3-yl]amino}-5-(trifluoromethyl)py-rimidin-4-yl)-1H,6H,7H-pyrrolo[2,3-c]pyridin-7-one] | < 1 | 5260 | > 200 | < 5 | < 5 | – | > 2000

Second part, led by results:

Papp at 20 h, 10 μmol [1] [×10⁻⁶ cm/s] | IC50 (CDK2/Cyclin A; [4]) [nM] | IC50 (CDK2/Cyclin A; [5]) [nM] | IC50 (CDK7/Cyclin H/MNAT1; [6]) [nM] | IC50 (CDK7/Cyclin H/MNAT1; [7]) [nM] | RLM Clint [3] | SMILES | CC50 at 72 h [2] [nM]
1 to 5 | – | – | – | 5 to 50 | – | O=C1c2[nH]cc(-c3nc(N[C@H]4CCCNC4)ncc3C(F)(F)F)c2CCCN1c1ccccn1 [CDK7_1176, 3-(2-{[(3S)-piperidin-3-yl]amino}-5-(trifluoromethyl)py-rimidin-4-yl)-7-(pyridin-2-yl)-1H,4H,5H,6H,7H, 8H-pyrrolo[2,3-c]azepin-8-one] | > 2000
1 to 5 | – | > 200 | – | < 5 | A (Clint < 20 μl/(min · mg of protein)) | O=C1c2[nH]cc(-c3nc(NC4CCCNC4)ncc3C(F)(F)F)c2CCCN1C1CC1 (centres unmarked) [CDK7_1188] | > 2000
1 to 5 | – | > 200 | – | < 5 | – | CC1CCc2c(-c3nc(N[C@H]4CCCNC4)ncc3C(F)(F)F)c[nH]c2C(=O)N1C (stereo partly drawn) [CDK7_1254, 6,7-dimethyl-3-(2-{[(3S)-piperidin-3-yl]amino}-5-(trifluoromethyl)py-rimidin-4-yl)-1H,4H,5H,6H,7H, 8H-pyrrolo[2,3-c]azepin-8-one] | > 2000
1 to 5 | 13900 | > 200 | < 5 | < 5 | A (Clint < 20 μl/(min · mg of protein)) | CC1(C)CC[C@H](Nc2ncc(C(F)(F)F)c(-c3c[nH]c4c3CCCN(C3CC3)C4=O)n2)CN1 [CDK7_1225, 7-cyclopropyl-3-(2-{[(3S)-6,6-dimethylpiperidin-3-yl]amino}-5-(trifluoromethyl)py-rimidin-4-yl)-1H,4H,5H,6H,7H, 8H-pyrrolo[2,3-c]azepin-8-one] | > 2000
1 to 5 | 5830 | > 200 | < 5 | < 5 | A (Clint < 20 μl/(min · mg of protein)) | CN1CCCc2c(-c3nc(N[C@H]4CCCNC4)ncc3C(F)(F)F)c[nH]c2C1=O [CDK7_953, 7-methyl-3-(2-{[(3S)-piperidin-3-yl]amino}-5-(trifluoromethyl)py-rimidin-4-yl)-1H,4H,5H,6H,7H, 8H-pyrrolo[2,3-c]azepin-8-one] | 500 to 2000
1 to 5 | – | > 200 | – | < 5 | – | O=C1c2[nH]cc(-c3nc(NC4CCCNC4)ncc3C(F)(F)F)c2CCCN1c1nccs1 (centres unmarked) [CDK7_1172] | > 2000
1 to 5 | – | > 200 | – | < 5 | A (Clint < 20 μl/(min · mg of protein)) | CCN1CCCc2c(-c3nc(N[C@H]4CCC(C)(C)NC4)ncc3C(F)(F)F)c[nH]c2C1=O [CDK7_1259, 3-(2-{[(3S)-6,6-dimethylpiperidin-3-yl]amino}-5-(trifluoromethyl)py-rimidin-4-yl)-7-ethyl-1H,4H,5H,6H,7H, 8H-pyrrolo[2,3-c]azepin-8-one] | > 2000
< 1 | – | > 200 | – | 5 to 50 | – | Cn1cc(N2CCCc3c(-c4nc(N[C@H]5CCCNC5)ncc4C(F)(F)F)c[nH]c3C2=O)cn1 [CDK7_955, 7-(1-methyl-1H-pyrazol-4-yl)-3-(2-{[(3S)-piperidin-3-yl]amino}-5-(trifluoromethyl)py-rimidin-4-yl)-1H,4H,5H,6H,7H, 8H-pyrrolo[2,3-c]azepin-8-one] | > 2000
5 to 10 | 22900 | > 200 | < 5 | < 5 | A (Clint < 20 μl/(min · mg of protein)) | CC(C)N1CCCc2c(-c3nc(N[C@H]4CCC(C)(C)NC4)ncc3C(F)(F)F)c[nH]c2C1=O [CDK7_1229, 3-(2-{[(3S)-6,6-dimethylpiperidin-3-yl]amino}-5-(trifluoromethyl)py-rimidin-4-yl)-7-(propan-2-yl)-1H,4H,5H,6H,7H, 8H-pyrrolo[2,3-c]azepin-8-one] | > 2000
5 to 10 | – | > 200 | – | < 5 | A (Clint < 20 μl/(min · mg of protein)) | CC1(C)CC[C@H](Nc2ncc(C(F)(F)F)c(-c3c[nH]c4c3CCCN(CC3CC3)C4=O)n2)CN1 [CDK7_1227, 7-(cyclopropylmeth-yl)-3-(2-{[(3S)-6,6-dimethylpiperidin-3-yl]amino}-5-(trifluoromethyl)py-rimidin-4-yl)-1H,4H,5H,6H,7H, 8H-pyrrolo[2,3-c]azepin-8-one] | > 2000
